Test results taken from PMC9459403, “New inhibitors of cathepsin V impair tumor cell proliferation and elastin degradation and increase immune cell cytotoxicity” (Computational and Structural Biotechnology Journal, 2022).
Marks after values point to notes of the source that are not given here.

Experiments:
Assay type in all cases: biochemical
Cathepsin V [1] = target: T1, Cathepsin V (Homo sapiens, UniProt O60911); test: Determination of relative inhibition, substrate Z-Phe-Arg-AMC; conditions: inhibitor 50 μM; substrate 2 μM; mean ± SD (n = 2); read-out: Cathepsin V Ri (%) relative inhibition
T1 construct: made in house; host or cells: Pichia pastoris
T1 sequence (O60911 114-334): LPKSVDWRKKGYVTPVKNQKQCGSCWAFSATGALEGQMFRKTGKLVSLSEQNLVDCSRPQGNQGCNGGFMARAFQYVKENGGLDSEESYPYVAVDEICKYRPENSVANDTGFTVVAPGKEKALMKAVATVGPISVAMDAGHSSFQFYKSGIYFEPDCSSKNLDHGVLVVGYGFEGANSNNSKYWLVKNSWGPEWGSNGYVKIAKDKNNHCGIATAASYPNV
Method: (§1) Human recombinant cathepsin V was expressed in Pichia Pastoris, and human recombinant cathepsin L was expressed in Escherichia coli, as reported, [51]. To determine the activities of cathepsins V and L, 100 mM acetate buffer (pH 5.5), containing 0.1 % PEG 8000 (Sigma-Aldrich, St. Louis, MO, USA), 5 mM cysteine, and 1.5 mM EDTA was used. Prior to the assay, the enzyme was activated in the assay buffer for 5 min at 37 °C.
(§2) The effect of the inhibitors on cathepsin V and L activity was determined using the substrate Z-Phe-Arg-AMC (Bachem, Bubendorf, Switzerland). The reaction was initiated by adding 90 μL of the activated enzyme (final concentration 2.5 ng/mL and 0.02 nM for cathepsins V and L, respectively) to the wells of a black microtiter plate containing 5 μL of substrate (with a final concentration 2 μM) and 5 μL of inhibitor (with a final concentration of 50 μM). The formation of fluorescent degradation products during the reaction was monitored continuously at 460 nm ± 10 nm with excitation at 380 nm ± 20 nm at 37 °C on a Tecan Infinite M1000 (Mannedorf, Switzerland) spectrofluorometer. All assay mixtures contained 5 % (v/v) DMSO. To prevent false-positive inhibition due to the formation of compound aggregates, 0.01 % Triton X-100 was used. All measurements were performed in triplicate and repeated at least twice. Relative inhibition was calculated using the following equation: relative inhibition (%) = 100(1- vi/vo), where vi and vo denote the reaction velocities in the presence and absence of the inhibitor, respectively.

[2] = target: T2, human recombinant cathepsin L (Homo sapiens, UniProt P07711); test: as above; conditions: inhibitor 50 μM; substrate 2 μM; mean ± SD (n = 2); read-out: Cathepsin L Ri (%) relative inhibition
T2 construct: made in house; host or cells: Escherichia coli
T2 sequence (P07711 114-333): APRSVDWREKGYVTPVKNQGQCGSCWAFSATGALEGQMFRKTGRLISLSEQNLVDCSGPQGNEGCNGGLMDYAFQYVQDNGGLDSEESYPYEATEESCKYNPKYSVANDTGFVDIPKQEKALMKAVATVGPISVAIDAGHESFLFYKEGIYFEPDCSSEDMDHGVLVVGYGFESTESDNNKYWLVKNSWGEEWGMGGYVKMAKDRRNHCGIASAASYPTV
Method: as §1, §2

Cathepsin V [3] = target: T1, Cathepsin V; test: Determination of Ki values and mode of inhibition; conditions: mean ± SD (n = 2)
Method: as §1
(§3) Inhibition constants were calculated from reaction velocities measured at three substrate concentrations (0.5, 1, and 4 μM) in the presence of inhibitors at seven concentrations (0, 20, 40, 60, 80, 100, and 200 µM). The reaction was initiated by adding 90 μL of enzyme at final concentrations of 2.5 ng/mL and 0.02 nM for cathepsins V and L, respectively, to the wells of a black microtiter plate containing 5 μL of substrate and 5 μL of inhibitor. To evaluate cathepsin V and L activity, the substrate Z-Phe-Arg-AMC was used. The formation of the fluorescent degradation products was monitored as described above. All assay mixtures contained 5 % (v/v) DMSO. All measurements were performed in duplicates and repeated at least twice. The SigmaPlot® 12, Enzyme Kinetics Module™ 1.3 was used to calculate Ki values.

[4] = target: T2, human recombinant cathepsin L; test: Determination of Ki values and mode of inhibition; conditions: mean ± SD (n = 2)
Method: as §1, §3

Cathepsin V [5] = target: T1, Cathepsin V; test: Determination of binding reversibility (dilution method); conditions: inhibitor 100 μM, cathepsin V 500 ng/ml
Method: Binding reversibility was determined according to the dilution method, which measures the recovery of enzymatic activity after rapid dilution of the enzyme-inhibitor complex. Cathepsin V (500 ng/ml) was incubated in the assay buffer with the inhibitor (100 μM). Half of the reaction mixture was immediately diluted 100-fold with the assay buffer and added to the wells of a black microplate containing 5 μL of substrate (at a final concentration of 2 μM), and the activity was measured. The other half of the reaction mixture was incubated for 2 h before it was diluted 100-fold, and then the activity was measured. The assay was performed in triplicates and repeated at least two times.

Compound | inhibition at 50 µM (Cathepsin V [1]) | inhibition at 50 µM [2] | also measured
O=C(NCc1ccc(F)cc1)NCC1CCN(C(=O)Oc2ccccc2)CC1 [Compound 41] | 17.7 ± 6.1% | 4.2 ± 0.9% | Cathepsin V Ki′ (µM) (Cathepsin V [3]): 612.5 ± 23.9^e µM; Ki (Cathepsin V [3]): 612 ± 23.9 µM; Cathepsin L Ki (µM) [4]: n.i.^g; Cathepsin L Ki′ (µM) [4]: n.i.^g
CCOC(=O)N1CCC(NC(=O)NCc2ccc(OC)cc2)CC1 [Compound 33] | -1.6 ± 6.5% | 3.4 ± 4.4% | 
COc1ccc(C(=O)C2OC2c2cc3ccccc3o2)c(OCc2ccccc2)c1 (stereo not shown) [Compound 22] | -7.2 ± 7.7% | 11.1 ± 4.4% | 
Cc1c(C(=O)N2CC(N3CCc4ccccc4C3)C2)cnn1-c1ccccc1 [Compound 15] | -27.6 ± 9.1% | -5.4 ± 7.3% | 
O=C(NCc1nnc2c(C(F)(F)F)cccn12)c1cc(-c2cccs2)n[nH]1 [Compound 19] | 3.8 ± 3.5% | 17.8 ± 13.7% | 
COC(=O)N1CCC(CNC(=O)NC(c2ccccc2)c2ccccc2)CC1 [Compound 45] | 9.2 ± 6.4% | 3.3 ± 2.4% | 
O=C(c1cc(Br)ccc1OCc1ccccc1)C1OC1c1cc2ccccc2o1 (stereo not shown) [Compound 26] | 6.3 ± 4.6% | 10.6 ± 4.5% | Ki [4]: 375 ± 20.5 µM
Cc1cc(OCc2ccccc2)c(C(=O)C2OC2c2csc(-c3ccccc3)n2)cc1C (stereo not shown) [Compound 49] | 22.9 ± 1% | 12.9 ± 0.5% | Ki (Cathepsin V [3]): 303 ± 11.3 µM; Ki [4]: 546 ± 114 µM
O=C(NCc1cccc2ccccc12)Nc1ccc2c(c1)CCCN2C(=O)c1cccs1 [Compound 10] | 17.8 ± 3.3% | 21.5 ± 1.2% | 
O=C(Nc1cc(Cl)ccc1Cl)c1cnc2n(c1=O)CCS2 [Compound 1] | -5.4 ± 2.4% | 4.8 ± 3.9% | 
COc1ccc(-c2cn3c(CCC(=O)Nc4nc5ccccc5s4)csc3n2)cc1 [Compound 9] | 18.9 ± 1.3% | 17.5 ± 5.3% | 
COC(=O)Cc1c[nH]c2ccc(OCC3CO3)cc12 (stereo not shown) [Compound 21] | > 20% | 15.3 ± 2.9% | Ki (Cathepsin V [3]): 159 ± 32.8 µM; Ki [4]: 236 ± 10.3 µM
COc1ccc(NC(C)=O)cc1NC(=O)c1n[nH]c2ccccc12 [Compound 6] | > 20% | 40.3 ± 4.5% | Ki (Cathepsin V [3]): 371 ± 86.1 µM; Ki [4]: 635 ± 167 µM
COC(=O)N1CCC(CNC(=O)NCc2cccc3ccccc23)CC1 [Compound 44] | 11.1 ± 11.5% | 1.1 ± 4.9% | 
Brc1ccccc1CNc1ncncc1-c1nc(-c2ccsc2)no1 [Compound 11] | -3.1 ± 4.6% | 6.3 ± 2.6% | 
Cc1noc(-c2cccn3c(CNC(=O)c4cc(-c5cccs5)n[nH]4)nnc23)n1 [Compound 18] | 6.7 ± 0.03% | 13 ± 7.9% | 
O=C(Nc1nc2c(s1)CN(Cc1ccccc1)CC2)c1ccc(-c2ccccc2)cc1 [Compound 31] | 29.2 ± 7% | 20.9 ± 7.2% | 
Cc1ccc(Cl)c2sc(NC(=O)c3ccc(S(=O)(=O)N4CCc5ccccc5C4)cc3)nc12 [Compound 2] | 16.4 ± 0.3% | 20 ± 2.2% | Ki [4]: 162 ± 1.8 µM
CN(C)c1ccc(CC(=O)NC2CCCN(Cc3cccnc3)C2)cc1 (stereo not shown) [Compound 30] | -2 ± 3.3% | -1.2 ± 0.3% | 
O=C(NCC(O)CN1CCOCC1)c1cc2cc(Br)ccc2[nH]1 (stereo not shown) [Compound 35] | 16.6 ± 8.4% | 12 ± 1.3% | 
Cc1nccc(O[C@H]2CCN(S(=O)(=O)/C=C/c3ccccc3)C2)n1 [Compound 16] | -6.5 ± 0.9% | -1 ± 4.8% | 
Cc1cc(C)c2sc(NC(=O)c3ccc(S(=O)(=O)N4CCc5ccccc5C4)cc3)nc2c1 [Compound 3] |  | 147 ± 88.7% | 
CC(C)C[C@H](NC(=O)[C@H]1O[C@@H]1C(=O)O)C(=O)NCCCCN=C(N)N [Compound E-64, reference compound] |  |  | binding reversibility: cathepsin V activity after 2 h incubation and 100-fold rapid dilution (Cathepsin V [5]): remained inhibited

Compound | inhibition at 50 µM (Cathepsin V [1]) | inhibition at 50 µM [2] | also measured
COc1ccc(CNC(=O)NCC2CCN(C(=O)Oc3ccccc3)CC2)cc1 [Compound 47] | 9.5 ± 2.5% | 4.4 ± 4.6% | 
O=c1cc(-c2ccccc2)c2cc(Cl)c(OCC3CO3)cc2o1 (stereo not shown) [Compound 23] | -2.9 ± 1.8% | 11.9 ± 6.2% | 
O=C(NC[C@H]1CCCN1c1ccccc1)c1cccnc1 [Compound 14] | 7.8 ± 3.1% | 13.1 ± 2.6% | 
O=C(NCc1nnc2c(C(F)(F)F)cccn12)c1cc2cc(Cl)ccc2[nH]1 [Compound 20] | 16.9 ± 0.6% | 14.5 ± 2.4% | 
COC(=O)Cc1c[nH]c2ccc(OCC(O)CNC(C)C)cc12 (stereo not shown) [Compound 52] | 0.3 ± 8.8% | -0.7 ± 1.5% | 
CC1Oc2ccccc2OC1C(=O)NCC#CCN1CCc2ccccc2C1 (stereo not shown) [Compound 12] | -9.5 ± 9.2% | 15.6 ± 1.2% | 
COc1ccc(CNC(=O)N2CCC(C(=O)N3CCCCC3)CC2)cc1 [Compound 50] | -2.9 ± 4% | 13.8 ± 0.5% | 
O=C(NCC1CCN(C(=O)Oc2ccccc2)CC1)c1ccccc1 [Compound 48] | 20.4 ± 14.5% | 5.7 ± 3.6% | Ki (Cathepsin V [3]): 1190 ± 468 µM; Ki [4]: 1190 ± 357 µM
O=C(Nc1ccc(F)cc1)OC1CCCC(NC(=O)c2c(F)cccc2F)C1 (stereo not shown) [Compound 13] | 7.5 ± 5% | 13.4 ± 1.4% | 
O=C(CN1Cc2ccccc2C1)NC1CCCN(Cc2cccc(O)c2)C1 (stereo not shown) [Compound 29] | -0.5 ± 1.2% | -2.4 ± 2% | 
O=C(NC(Cc1ccccc1)C(=O)O)C1CCC(CNC(=O)C2Cc3ccccc3CN2)CC1 (stereo not shown) [Compound 51] | -9.8 ± 5.8% | -4 ± 7.3% | 
O=C(c1cc(F)ccc1OCc1ccccc1)C1OC1c1ccc2c(c1)OCCO2 (stereo not shown) [Compound 24] | 0.8 ± 3.3% | 17.7 ± 11.7% | 
Cc1[nH]c(C(=O)NCCCc2nc3ccccc3[nH]2)c(C)c1C(=O)OC(C)C [Compound 37] | -3.4 ± 2.9% | -2.1 ± 0.7% | 
O=C(Nc1nc2c(s1)CN(Cc1ccccc1)CC2)c1ccccc1 [Compound 32] | 6.9 ± 2.2% | 4.7 ± 3.2% | 
O=C(NCCN1CCN(c2ccc(Cl)cc2)CC1)[C@H]1CC(=O)N(c2ccccc2)C1 [Compound 8] | -20.3 ± 3.5% | -4.4 ± 2.1% | 
COCCN1CCC(CNC(=O)NCc2ccc(OC)cc2)CC1 [Compound 43] | 5.2 ± 1.8% | -0.4 ± 2.5% | 
CC(=O)N1CCc2cc(C(=O)C(C)OC(=O)CCc3nc(-c4cccs4)no3)ccc21 (stereo not shown) [Compound 34] |  | -3 ± 0.5% | 
CNC(=O)C1(COC)CCCN1C(=O)CN1CCOCC1=O (stereo not shown) [Compound 38] | 7.9 ± 0.4% | 2.3 ± 3.1% | 
COc1ccc(CNC(=O)N2CCC(C(N)=O)CC2)cc1 [Compound 36] | 15.2 ± 10% | -0.6 ± 1.7% | 
Cc1nc(C2OC2C(=O)c2ccccc2OCc2ccccc2)cs1 (stereo not shown) [Compound 39] | 17.1 ± 7.2% | 6.1 ± 0.7% | Ki (Cathepsin V [3]): 403 ± 79.7 µM; Cathepsin L Ki′ (µM) [4]: 725.7 ± 142.3^e µM; Ki [4]: 726 ± 142 µM
O=C(N[C@H]1CCCN(Cc2ccccc2)C1)c1ccc(CN2CCCC2)o1 [Compound 28] | 1.1 ± 9% | -4.6 ± 5.2% | 
COc1ccc(CNC(=O)NCC2CCN(C(=O)N(C)C)CC2)cc1 [Compound 46] | 12.1 ± 9.8% | 4.3 ± 4.1% | 
Cc1cc(CNC(=O)Cc2cccc3ccccc23)ncn1 [Compound 17] | -2.4 ± 5.6% | 9.4 ± 9.5% | 
